Assay results reported in patent US9096642B2, “Therapeutic compounds for immunomodulation” (Aurigene Discovery Technologies Limited, priority 2011, dated 2015).

Tested on: B16F10 melanoma
Test: B16F10 metastasis model (lung metastasis of B16F10 melanoma)
Format: in vivo, C57/b16J mice
Conditions: 5 mg/kg subcutaneously once daily; after 14 days of treatment; 0.1×10^6 B16F10 cells i.v.; versus vehicle control
Method: In vivo Efficacy of Compound 1 on Metastasis of B16F10 Melanoma
C57/b16J female mice (Aurigene, Bangalore, India) aged 6 to 8 weeks were used for the experiment. Animals were acclimatized for a week in the experimental room before conducting the experiment.
Effect of Compound 001 in B16F10 Metastasis Model
In the case of metastasis model, 0.1×10^6 B16F10 cells were injected to C57/b16J mice through i.v. Compound 001 dissolved in PBS, pH 7.4 was dosed subcutaneously at 5 mg/kg once daily. Vehicle control group of mice received only saline. Each group consisted of ten animals. Body weight and clinical signs were recorded daily. After 14 days of treatment, lung metastasis was quantitated by counting number of nodules under dissection microscope.

Compound 001: SEQ ID NO: 3 (SNTSEFS)
reduction in metastasis (lung metastasis quantitated by counting number of nodules): 64%
